According to ChEMBL document CHEMBL1201862, “PubChem BioAssay data set” (2004):
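All cell lines were grown in 96-well plates and treated with compound for 48 hours. GI50 is the concentration that inhibits growth by half.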 The source made the active and inactive calls. No stated cut-off is given here; in the data, active = GI50 up to about 1.1 µM and inactive = higher.

What was measured:
Assay in all cases: NCI tumour cell line growth inhibition, 48 h
M19-MEL = test system: M19-MEL
RXF 631 = test system: RXF 631
DMS-273 = test system: DMS-273
DLD-1 = test system: DLD-1
LXFL 529 = test system: LXFL 529
HOP-18 = test system: HOP-18
DMS-114 = test system: DMS-114
KM-20L2 = test system: KM-20L2
XF498 = test system: XF498

Measured: GI50

Cn1c(=O)c(/N=N/c2c(=O)n(C)c(=O)n3c2[nH]c2ccccc23)c2[nH]c3ccccc3n2c1=O
inactive: M19-MEL > 100 µM | RXF 631 85.7 µM | DMS-273 > 100 µM | DLD-1 > 100 µM | LXFL 529 20 µM | HOP-18 24 µM | DMS-114 63 µM | KM-20L2 > 100 µM | XF498 > 100 µM
